# Tested on: 782815-120-R-J1-PDC complex spheroid viability
# Assay: Anticancer human tumor 782815-120-R-J1-PDC patient-derived colon adenocarcinoma cell line growth inhibition [RAS]
# Settings: for IC50: curve of first compound; for viability, T/C: stronger effect = lower value
# Procedure, shortened: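 Agents were tested in combination matrices in half-log decrements from a top concentration at or near clinical Cmax (10 microM if undetermined). Targets were multi-cell spheroids of tumour lines plus HUVEC and MSC stromal cells.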
# [1] = second compound 0.000949 µM, first compound 0.0316 µM
# [2] = second compound 0.000949 µM, first compound 0.1 µM
# [3] = second compound 0.000949 µM, first compound 0.316 µM
# [4] = second compound 0.000949 µM, first compound 1 µM
# [5] = second compound 0.003 µM, first compound 0.0316 µM
# [6] = second compound 0.003 µM, first compound 0.1 µM
# [7] = second compound 0.003 µM, first compound 0.316 µM
# [8] = second compound 0.003 µM, first compound 1 µM
# [9] = second compound 0.00949 µM, first compound 0.0316 µM
# [10] = second compound 0.00949 µM, first compound 0.1 µM
# [11] = second compound 0.00949 µM, first compound 0.316 µM
# [12] = second compound 0.00949 µM, first compound 1 µM
# [13] = second compound 0.03 µM, first compound 0.0316 µM
# [14] = second compound 0.03 µM, first compound 0.1 µM
# [15] = second compound 0.03 µM, first compound 0.316 µM
# [16] = second compound 0.03 µM, first compound 1 µM
# [17] = second compound 0.0949 µM, first compound 0.0316 µM
# [18] = second compound 0.0949 µM, first compound 0.1 µM
# [19] = second compound 0.0949 µM, first compound 0.316 µM
# [20] = second compound 0.0949 µM, first compound 1 µM
# [21] = second compound 0.3 µM, first compound 0.0316 µM
# [22] = second compound 0.3 µM, first compound 0.1 µM
# [23] = second compound 0.3 µM, first compound 0.316 µM
# [24] = second compound 0.3 µM, first compound 1 µM
# 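Note: spheroids exposed to compounds for 7 days before reading.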
# 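Throughout, for viability, T/C: 100% = DMSO vehicle control viability.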
structure (smiles),measurement,setting,value
C[C@@H](NC(=O)c1ncnc(N)c1Cl)c1ncc(C(=O)Nc2cc(C(F)(F)F)c(Cl)cn2)s1 + CCn1c(-c2cc(N3CCN(C)CC3)cnc2C(C)OC)c2c3cc(ccc31)-c1csc(n1)CC(NC(=O)C1CC1C)C(=O)N1CCCC(N1)C(=O)OCC(C)(C)C2,IC50,second compound 0.000949 µM,> 10 µM
same,IC50,second compound 0.003 µM,> 10 µM
same,IC50,second compound 0.00949 µM,< 0.0316 µM
same,IC50,second compound 0.03 µM,< 0.0316 µM
same,IC50,second compound 0.0949 µM,< 0.0316 µM
same,IC50,second compound 0.3 µM,< 0.0316 µM
same,"viability, T/C",[1],82.2%
same,"viability, T/C",[2],95.5%
same,"viability, T/C",[3],76.9%
same,"viability, T/C",[4],73.4%
same,"viability, T/C","second compound 0.000949 µM, first compound 3.16 µM",58.8%
same,"viability, T/C","second compound 0.000949 µM, first compound 10 µM",66.8%
same,"viability, T/C",[5],74.1%
same,"viability, T/C",[6],69.4%
same,"viability, T/C",[7],62.9%
same,"viability, T/C",[8],60.5%
same,"viability, T/C","second compound 0.003 µM, first compound 3.16 µM",55.1%
same,"viability, T/C","second compound 0.003 µM, first compound 10 µM",54.7%
same,"viability, T/C",[9],47.9%
same,"viability, T/C",[10],50.3%
same,"viability, T/C",[11],47.7%
same,"viability, T/C",[12],46.6%
same,"viability, T/C","second compound 0.00949 µM, first compound 3.16 µM",47%
same,"viability, T/C","second compound 0.00949 µM, first compound 10 µM",44.6%
same,"viability, T/C",[13],25.8%
same,"viability, T/C",[14],33%
same,"viability, T/C",[15],32%
same,"viability, T/C",[16],31.9%
same,"viability, T/C","second compound 0.03 µM, first compound 3.16 µM",37.6%
same,"viability, T/C","second compound 0.03 µM, first compound 10 µM",35.9%
same,"viability, T/C",[17],19.7%
same,"viability, T/C",[18],23.8%
same,"viability, T/C",[19],25.3%
same,"viability, T/C",[20],27.1%
same,"viability, T/C","second compound 0.0949 µM, first compound 3.16 µM",30.8%
same,"viability, T/C","second compound 0.0949 µM, first compound 10 µM",27.6%
same,"viability, T/C",[21],18.6%
same,"viability, T/C",[22],20.7%
same,"viability, T/C",[23],23.1%
same,"viability, T/C",[24],21.9%
same,"viability, T/C","second compound 0.3 µM, first compound 3.16 µM",26.4%
same,"viability, T/C","second compound 0.3 µM, first compound 10 µM",27.9%
C=CC(=O)N1CCN(c2nc(OCC3CCCN3C)nc3c(F)c(-c4nc(N)cc(C)c4C(F)(F)F)c(Cl)cc23)C(C)C1 (stereo unspecified) + CCn1c(-c2cccnc2C(C)OC)c2c3cc(ccc31)N1CCOC(CC(NC(=O)C(C(C)C)N(C)C(=O)C3(F)CCN(C(=O)C#CC(C)(C)N(C)C)CC3)C(=O)N3CCCC(N3)C(=O)OCC(C)(C)C2)C1,IC50,second compound 0.000949 µM,> 1 µM
same,IC50,second compound 0.003 µM,> 1 µM
same,IC50,second compound 0.00949 µM,> 1 µM
same,IC50,second compound 0.03 µM,> 1 µM
same,IC50,second compound 0.0949 µM,> 1 µM
same,IC50,second compound 0.3 µM,> 1 µM
same,"viability, T/C","second compound 0.000949 µM, first compound 0.00316 µM",95.1%
same,"viability, T/C","second compound 0.000949 µM, first compound 0.01 µM",96%
same,"viability, T/C",[1],101%
same,"viability, T/C",[2],83.2%
same,"viability, T/C",[3],94.4%
same,"viability, T/C",[4],94.5%
same,"viability, T/C","second compound 0.003 µM, first compound 0.00316 µM",91.3%
same,"viability, T/C","second compound 0.003 µM, first compound 0.01 µM",97%
same,"viability, T/C",[5],101%
same,"viability, T/C",[6],94.8%
same,"viability, T/C",[7],93.3%
same,"viability, T/C",[8],94.7%
same,"viability, T/C","second compound 0.00949 µM, first compound 0.00316 µM",87.2%
same,"viability, T/C","second compound 0.00949 µM, first compound 0.01 µM",97.2%
same,"viability, T/C",[9],89.4%
same,"viability, T/C",[10],95.6%
same,"viability, T/C",[11],92.9%
same,"viability, T/C",[12],99.1%
same,"viability, T/C","second compound 0.03 µM, first compound 0.00316 µM",86.8%
same,"viability, T/C","second compound 0.03 µM, first compound 0.01 µM",95%
same,"viability, T/C",[13],87%
same,"viability, T/C",[14],99.4%
same,"viability, T/C",[15],94.4%
same,"viability, T/C",[16],92.1%
same,"viability, T/C","second compound 0.0949 µM, first compound 0.00316 µM",86.8%
same,"viability, T/C","second compound 0.0949 µM, first compound 0.01 µM",105%
same,"viability, T/C",[17],99%
same,"viability, T/C",[18],101%
same,"viability, T/C",[19],101%
same,"viability, T/C",[20],96.4%
same,"viability, T/C","second compound 0.3 µM, first compound 0.00316 µM",93.4%
same,"viability, T/C","second compound 0.3 µM, first compound 0.01 µM",84.3%
same,"viability, T/C",[21],97.5%
same,"viability, T/C",[22],91.2%
same,"viability, T/C",[23],89.3%
same,"viability, T/C",[24],87.4%
C=CC(=O)N1CCN(c2nc(OCC3CCCN3C)nc3c(F)c(-c4nc(N)cc(C)c4C(F)(F)F)c(Cl)cc23)C(C)C1 (stereo unspecified) + C#Cc1c(F)ccc2cc(O)cc(-c3ncc4c(N5CC6CCC(C5)N6)nc(OCC56CCCN5CC(F)C6)nc4c3F)c12,IC50,second compound 0.0316 µM,> 1 µM
same,IC50,second compound 0.1 µM,> 1 µM
same,IC50,second compound 0.316 µM,> 1 µM
same,IC50,second compound 1 µM,> 1 µM
same,IC50,second compound 3.16 µM,> 1 µM
same,IC50,second compound 10 µM,> 1 µM
same,"viability, T/C","second compound 0.0316 µM, first compound 0.00316 µM",98.9%
same,"viability, T/C","second compound 0.0316 µM, first compound 0.01 µM",86.9%
same,"viability, T/C","second compound 0.0316 µM, first compound 0.0316 µM",103%
same,"viability, T/C","second compound 0.0316 µM, first compound 0.1 µM",92.5%
same,"viability, T/C","second compound 0.0316 µM, first compound 0.316 µM",96.9%
same,"viability, T/C","second compound 0.0316 µM, first compound 1 µM",97%
same,"viability, T/C","second compound 0.1 µM, first compound 0.00316 µM",97.3%
same,"viability, T/C","second compound 0.1 µM, first compound 0.01 µM",93.1%
same,"viability, T/C","second compound 0.1 µM, first compound 0.0316 µM",97.5%
same,"viability, T/C","second compound 0.1 µM, first compound 0.1 µM",94%
same,"viability, T/C","second compound 0.1 µM, first compound 0.316 µM",97%
same,"viability, T/C","second compound 0.1 µM, first compound 1 µM",101%
same,"viability, T/C","second compound 0.316 µM, first compound 0.00316 µM",92.6%
same,"viability, T/C","second compound 0.316 µM, first compound 0.01 µM",94.7%
same,"viability, T/C","second compound 0.316 µM, first compound 0.0316 µM",89.2%
same,"viability, T/C","second compound 0.316 µM, first compound 0.1 µM",91.8%
same,"viability, T/C","second compound 0.316 µM, first compound 0.316 µM",98.4%
same,"viability, T/C","second compound 0.316 µM, first compound 1 µM",84.4%
same,"viability, T/C","second compound 1 µM, first compound 0.00316 µM",95.5%
same,"viability, T/C","second compound 1 µM, first compound 0.01 µM",94.6%
same,"viability, T/C","second compound 1 µM, first compound 0.0316 µM",94%
same,"viability, T/C","second compound 1 µM, first compound 0.1 µM",99.2%
same,"viability, T/C","second compound 1 µM, first compound 0.316 µM",101%
same,"viability, T/C","second compound 1 µM, first compound 1 µM",98.3%
same,"viability, T/C","second compound 3.16 µM, first compound 0.00316 µM",97.3%
same,"viability, T/C","second compound 3.16 µM, first compound 0.01 µM",91.7%
same,"viability, T/C","second compound 3.16 µM, first compound 0.0316 µM",95.9%
same,"viability, T/C","second compound 3.16 µM, first compound 0.1 µM",105%
same,"viability, T/C","second compound 3.16 µM, first compound 0.316 µM",101%
same,"viability, T/C","second compound 3.16 µM, first compound 1 µM",90.5%
same,"viability, T/C","second compound 10 µM, first compound 0.00316 µM",106%
same,"viability, T/C","second compound 10 µM, first compound 0.01 µM",104%
same,"viability, T/C","second compound 10 µM, first compound 0.0316 µM",93.6%
same,"viability, T/C","second compound 10 µM, first compound 0.1 µM",99.6%
same,"viability, T/C","second compound 10 µM, first compound 0.316 µM",104%
same,"viability, T/C","second compound 10 µM, first compound 1 µM",91.1%

# From PubChem BioAssay AID2060887 (Molecular Pharmacology Branch, DTP, NCI, 2025)
